Earlier results as cited in article PMC12854702 (Synlett : accounts and rapid communications in synthetic …, 2025).

Key:
human SLACK = details: Tl+-flux, HEK-293 cells stably expressing human SLACK
[1] = tested on: serotonin 5-HT2A receptor

antagonism of dopamine D2 receptor (dopamine D2 receptor): potent antagonist | antagonism of histamine H1 receptor (histamine H1 receptor): potent antagonist | antagonism of serotonin 5-HT2A receptor [1]: potent antagonist
Structure (SMILES): CN1CCN(C2=Nc3ccccc3Oc3ccc(Cl)cc32)CC1 [loxapine]
SLACK activation Emax (human SLACK): 100%
